{
  "source": "paper PMC12009420",
  "about": "“Dynamically chiral phosphonic acid-type metallo-β-lactamase inhibitors” (Communications Chemistry, 2025)",
  "assay": "Long term stability in buffer with 2.5% DMSO (LC-MS)",
  "format": "physicochemical",
  "settings": "20 mM KPO4, 0.1 mM ZnCl2, pH 7.0 + 2.5% DMSO; LC-MS 254 nm",
  "text": "Reagents, reactants, solvents and drying agents for synthesis, work-up and purification were purchased from commercial vendors (Sigma-Aldrich, VWR, Merck, Fluorochem, Thermo Fisher Scientific, Solveco), and if not stated otherwise they were used without further purification. Reactions and long term stability of the final compounds in buffer were monitored using LC-MS (Agilent 1260 Infinity II) equipped with an ESI-Q detector (Infinitylab LC-MSD) using Agilent InfinityLab Poroshell 120 C18 columns (2.7 μm, ϕ 2.1 mm L 50 mm or 2.7 μm, ϕ 4.6 mm L 50 mm). The intermediates were purified using VWR silica gel 60 (40–63 μm) with a Biotage Isolera One flash column chromatography instrument. The final products were purified with preparative RP-HPLC (VWR LaPrep P110) with single wavelength detection (254 nm), using a Kinetex C8 column (5 μm, 100 Å, ϕ 21.2 mm L 250 mm) and gradients of CH3CN/H2O + 0.1% formic acid as the mobile phase at a 10 mL/min flow rate. Analytical HPLC data were acquired on a VWR LaChrome ELITE system using an ACE3 C8 (3 μm, 300 Å, ϕ 3.0 mm L 100 mm) or a Kinetex C18 columns (5 μm, 100 Å, ϕ 3.0 mm L 150 mm). NMR spectra were recorded on a Varian Agilent MR400-DD2 400 MHz spectrometer equipped with a OneNMR probe, Bruker Avance Neo 500 MHz spectrometer equipped with a cryogenic TXO probe, or a Bruker Avance Neo 600 MHz spectrometer equipped with a TCI cryogenic probe. The chemical shifts are reported using the residual solvent signal as an indirect reference to TMS.\n4. Long term stability of the final compounds in buffer with 2.5% DMSO\nThe long term stability of the final compounds in buffer (20 mM KPO4, 0.1 mM ZnCl2, pH 7.0 + 2.5% DMSO) were monitored using LC-MS (Agilent 1260 Infinity II) equipped with an ESI-Q detector (Infinitylab LC-MSD) using Agilent InfinityLab Poroshell 120 C18 column (2.7 μm, ϕ 4.6 mm L 50 mm) at 254 nm with a 7 min long gradient method (5% to 95% CH3CN) of CH3CN/H2O + 0.1% formic acid as the mobile phase at a 1.0 mL/min flow rate. The samples were measured right after dissolving them in buffer, and after 1 month of keeping the same samples dissolved in the same buffer. The main peaks (> 95%) and impurities with > 1% are […]\nFigure S14. Compound 5a right after dissolving it in buffer.\nFigure S15. Compound 5a kept in buffer for 1 month. […]",
  "data": [
    {"smiles": "O=C(NC(c1ccccc1O)P(=O)(O)O)c1scc2c1CCCC2", "note": "(centres unmarked) [5g]", "values": [
      {"measurement": "main peak Area% kept in buffer for 1 month", "value": 98.05, "unit": "%"},
      {"measurement": "main peak Area% right after dissolving in buffer", "value": 98.21, "unit": "%"}
    ]}
  ]
}
